8 compounds from patent US6906061B2, “Pharmaceutical agent containing Rho kinase inhibitor” (Mitsubishi Pharma Corporation, priority 1996, dated 2005) can be followed below.

Test [1] concerns BALB/c spleen cells stimulated with C57BL/6 spleen cells. Kind of test: Inhibition of mouse allogenic mixed lymphocyte reaction. It counts as cell-based. The following applies: 4 days culture, MTT, read-out: Mouse allogenic MLR inhibitory activity IC50. How it is done: Inhibition of Mouse Allogenic Mixed Lymphocyte Reaction
A mouse allogenic mixed lymphocyte reaction (hereinafter to be referred to as mouse allogenic MLR) was performed by mixed culture (equal ratio) of the spleen cell of BALB/c mice as the reaction cell and the spleen cell of C57BL/6 mice treated with mitomycin C as stimulated cell.
The reaction cells were prepared by the following method. Spleen was removed from 5-6 week old BALB/c mice and treated with RPMI1640 medium (containing kanamycin sulfate (60 μg/ml), penicillin G potassium (100 units/ml), N-2-hydroxyethylpiperazine-N′-2-ethanesulfonate (10 mM), 0.1% sodium hydrogencarbonate and L-glutamin (2 mM)) supplemented with 5% heat inactivated fetal bovine serum (FBS) to give a single cell suspension of the spleen cell. After hemolysis treatment, the suspension was adjusted to10^7 cells/ml with RPMI1640 medium containing 10^−4 M 2-mercaptoethanol and 10% FBS and used as a reaction cell suspension.
The reaction cell suspension (50 μl) prepared by the above method, stimulated cell suspension (50 μl) and the test compound (100 μl) prepared using RPMI1640 medium containing 10% FBS were added to a 96 well plate and incubated at 37° C. under 5% CO2 gas, 95% air for 4 days.
A pigment assay using 3-(4,5-dimethylthiazol-2-yl)-2,5-diphenyltetrazolium bromide (MTT) was applied for the determination of lymphocyte transformation reaction.
After the completion of culture, the supernatant (100 μl) in each well was removed, and 5 mg/ml MTT solution (20 μl) was added to each well, which was followed by incubation at 37° C. for 4 hours. Then, a 0.01 N hydrochloric acid solution (100 μl) containing 10% sodium dodecyl sulfate was added and the mixture was incubated at 37° C. overnight. The resulting purple crystals of formazan was dissolved and absorbance at 550 nm was measured using a microplate absorption meter, which was used as the index of lymphocyte transformation reaction of the mouse allogenic MLR. The inhibition of mouse allogenic MLR was evaluated by calculating the inhibition percentage by the following formula The results are shown in Table 7.

The subject of a further test is mouse femoral bone. Kind of test: Inhibition of bone resorption (in vitro), mouse femoral bone. The following applies: 6 days incubation of ICR mouse femoral bone; for inhibition at 100 µM: 144 h. As for the experimental part: Inhibition of Bone Resorption (in vitro)
The determination of the in vitro inhibition of bone resorption using mouse femoral bone followed the method below.
The femoral bone of 3-6 week old male ICR mice was aseptically removed, and bone marrow cavity was washed with F12 medium, containing 10% heat inactivated fetal bovine serum, penicillin G calcium (100 units/ml), kanamycin sulfate (60 μg) and 0.15% sodium hydrogencarbonate (hereinafter the medium is to be referred to as culture solution). After washing the bone marrow cavity and then removing the soft tissue adhered to the bone, the bone was subjected to incubation. The test compound was once dissolved in dimethyl sulfoxide (DMSO) to give a 10 mg/ml solution, which was diluted 1000-fold with the culture solution to give a 10 μg/ml solution. The test compounds were respectively added to the concentration shown in Table 7 and, using this culture solution (1.2 ml), the ICR mouse femoral bone was incubated in a 24 well plate for 6 days under the conditions of 5% CO2 gas, 95% air. After the completion of the incubation, the culture supernatant was recovered, and the amount of calcium suspending in the culture supernatant was quantitatively determined by the chelate method using o-cresolphthalein. The bone resorption inhibitory action of the test compound was calculated by the following formula using the incubation of the femoral bone without addition of the test compound as a control. [formula] This experiment was done with 4 cases in each group. As the control, the same amount of DMSO alone as in the case with the addition of the test compound was used.

In test [2] the test system is normal human umberical vascular endothelial cells. Kind of test: Inhibition of angiogenesis (lumen formation in vascular endothelial cells). Format: cell-based. Conditions: 18 hours, compared with the control, number rises with inhibition of lumen formation. As for the experimental part:
Inhibition of Angiogenesis
The inhibition of angiogenesis was evaluated by using the inhibition of lumen formation in vascular endothelial cell as an index. To be specific, normal human umberical vascular endothelial cells (KURABO […] LTD.) were suspended in E-GMUV medium at 5.5×10^4 cells/ml and 400 μl therefrom was added on matrigel plate (EHS sarcoma-derived reconstructed basement membrane, Collaborative Biomedical Products). Then, the test compound (1 mM solution, 4 μl) was added and the cells were incubated at 37° C. under 5% CO2 gas for 18 hours. After the completion of the incubation, the number of lumen per predetermined area was counted under a microscope. Inasmuch as the number of lumen increases by the inhibition of lumen formation, the test compound was evaluated by comparison of the number of lumen with the control.

The test system of the next test is Human SK-Mel-28 melanoma. Kind of test: Inhibition of cell growth of SK-Mel-28 melanoma. It counts as cell-based. Conditions: 72 hours, MTT. How it is done: Inhibition of Cell Growth of SK-Mel-28 Melanoma
Human SK-Mel-28 melanoma (10^4 cells) and the test compound were suspended in RPMI1640 medium containing 100 μl of 10% FBS and incubated in a 96 well plate at 37° C. under 5% CO2 gas for 72 hours. After the incubation, 10 μl of MTT (5 mg/ml) was added to each well and the cells were incubated at 37° C. under 5% CO2 gas for 4 hours. Then, 10% sodium dodecyl sulfate and 0.01 N hydrochloric acid solution were each added by 10 μl to respective wells. After the plate was stood overnight, absorbance at 570 nm was measured using a microplate reader and the inhibition percentage (% cytotoxicity) was calculated by the following formula.
The cytotoxicity against human cultured tumor cells was confirmed by pigment method (Carmichael et al., Cancer Res., 47, 936-942, 1987: Mosman, J. Immunol. Methods, 65, 55-63, 1983) using 3-(4,5-dimethylthiazol-2-yl)-2,5-diphenyltetrazolium bromide (MTT).
The test compound was dissolved in dimethyl sulfoxide and diluted with RPMI 1640 medium before use. The final dimethyl sulfoxide concentration was adjusted to not more than 0.25%.

The subject of test [3] is Bovine Aorta Thoracia Rho Kinase. Kind of test: Rho kinase inhibitory action (inhibition of bovine aorta thoracia Rho kinase). It counts as biochemical. Conditions: test compound 10 μM. How it is done: Rho Kinase Inhibitory Action (Inhibition of Bovine Aorta Thoracia Rho Kinase)
The Rho kinase was prepared from bovine aorta of thorax by partial purification as in the following. The artery was minced and homogenized with a 9-fold amount of 50 mM Tris-hydroxymethylaminomethane (Tris) (pH=7.4), 1 mM dithiothreitol, 1 mM EGTA, 1 mM EDTA, 100 μM p-amidinophenylmethylsulfonyl fluoride, 5 μM E-64, 5 μM leupeptine and 5 μM pepstatin A. The homogenate was centrifuged (10,000×g, 30 minutes) to give supernatant. The supernatant was adsorbed onto a hydroxyapatite column. The column was washed with 0.2M phosphate buffer (pH=6.8). The standard product of Rho kinase was eluted with 0.4M phosphate buffer (pH=6.8). The Rho kinase was assayed as follows.
A reaction mixture (total amount 50 μl) containing 50 mM Tris, 1 mM EDTA, 5 mM MgCl2, 50 μg/ml histone, 10 μM GTPγS, 100 μg/ml Rho, 2 μM [^32P]ATP, the Rho kinase (3 μl) prepared in the above and the test compound was reacted at 30° C. for 5 minutes. The reaction was terminated by the addition of 25% trichloroacetic acid (TCA) solution (1 ml) and the mixture was stood at 4° C. for 30 minutes. Then, the mixture was filtered through a membrane filter (HAWP type, Millipore), and the radioactivity of the filter was counted on a liquid scintillation counter. The inhibitory action of the test compound was calculated from the following formula based on the comparison of the radioactivity with the sample without the test compound (control).

Test [4] has as its system CEM cells (human T cell type established cell). Put plainly: Inhibition of VLA integrin activation (phorbol ester-induced adhesion of CEM cells to fibronectin). It counts as cell-based. The following applies: CCRF-CEM, concentration 100 μM, PMA-induced adhesion, read-out: Adhesion induction inhibition (%). How it is done: Inhibition of VLA (Very Late Antigen) Integrin Activation
As the index of the activation by VLA integrin, phorbol ester-induced adhesion of CEM cells (human T cell type established cell) to fibronectin, which is a ligand of VIA integrin, was measured. The inhibitory action on the induced adhesion by the test compound was determined by the following method.
CEM cells were washed with RPMI1640 medium containing 0.5% bovine serum albumin (BSA), 10 mM HEPES, 2 mM L-glutamin, 1 mM sodium pyruvate, 60 μg/ml kanamycin sulfate and 1.5 mg/ml sodium hydrogencarbonate (hereinafter this medium is referred to as culture solution) and suspended in this medium for use in the following experiment. To each well of a 96 well plate coated with human fibronectin were added CEM cells (5×10^4) and the test compound dissolved in the culture solution (final concentration 1-100 μM) to the amount of 100 μl, and the plate was stood at 37° C. for 1 hour. Then, PMA (phorbol 12-myristate 13-acetate, TPA; final concentration 10 ng/ml) and the test compound were added to the amount of 200 μl, and the plate was stood at 37° C. for 30 minutes. Each well was washed twice with the culture solution (200 μL) at 37° C., and the LDH (lactate dehydrogenase) activity of the cells adhered to the plate was determined, whereby the amount of the adhered cell was measured. Based on the results obtained by the above-mentioned method, the inhibitory action of the test compound on the induced adhesion was calculated by the following formula The results are shown in Table 6. Inhibition (%) of adhesion induction=(a−b)/(a−c)×100 • a=number of cells adhered with the addition of PMA • b=number of cells adhered with the addition of test compound and PMA • c=number of cells adhered without stimulation

For test [5], the system named is smooth muscle cell (SMC) from rat aorta. Kind of test: Inhibition of growth of vascular smooth muscle cell. Format: cell-based. Conditions: 48 hours, MTT. How it is done: Inhibition of Growth of Vascular Smooth Muscle Cell
The separation from the artery of rat and culture of smooth muscle cell (SMC) followed the explant method of Ross (Ross, R. and Glomset, J. A., N. Engl. J. Med., 295, 369-420, 1976). Male wistar rats (10 week old) was slaughtered by cutting the carotid arteries and aorta of thorax was removed. After removal of fat tissues around the tunica externa and peeling of tunica intima, the artery was minced and incubated in 10% fetal bovine serum (FBS)-containing DMEM medium at 37° C. under 5% CO2 gas. Seven days later, the out-grown cells were separated by trypsin treatment, washed with phosphate-buffered saline (PBS) and incubated in 10% FBS-containing DMEM medium in a 80 cm^2 culture flask. The cells of subculture 2 were suspended in 10% FBS-containing DMEM medium at 5×10^4 cells/ml and 100 μl thereof per well was added to 96 well collagen-coated plate, which was incubated at 37° C. under 5% CO2 gas for one day. The test compound was appropriately diluted with dimethyl sulfoxide (DMSO) and added to the 96 well plate. The concentration of DMSO in the medium was adjusted to 1%. After 48 hours, 10 μl of MTT solution (5 mg/ml) was added and, 4 hours later, 10% sodium dodecyl sulfate-0.01 N hydrochloric acid (50 μl) was added. The absorbance at 570 nm was measured the following day by an immunoreader. The SMC growth inhibitory action of the test compound was shown by inhibition percentage calculated by the following formula The results are shown in Table 10.

The term IC50 denotes the concentration at which inhibition is half-maximal. One may read the inhibition as how much of the control response was suppressed.

Read-outs that look alike come from different tables or passages of the source.

`CC(N)[C@H]1CC[C@H](C(=O)Nc2ccnc3[nH]ncc23)CC1` (single isomer, unassigned; (+)) [Compound 112.2HCl, (+)-trans-N-(1H-pyrazolo[3,4-b]pyridin-4-yl)-4-(1-aminoethyl)cyclohexanecarboxamide]: the IC50 in test [1] (Mus musculus, Lymphocyte, 96 h) worked out at 4.4 µM. 100 µM produced 75.7% inhibition with mouse femoral bone.
Turning to `CC(C)(N)[C@H]1CC[C@H](C(=O)Nc2ccnc3[nH]ccc23)CC1` [Compound 110.2HCl.H2O, trans-N-(1H-pyrrolo[2,3-b]pyridin-4-yl)-4-(11-amino-1-methylethyl)cyclohexanecarboxamide], the IC50 in test [1] worked out at 1.1 µM. Besides, the “Bone resorption inhibition % (μM)” value with mouse femoral bone (100 μM) is 74.0(100) %. Moreover, the “Number of lumen (10 μM)” value in test [2] amounted to 203%.
The compound `NC[C@H]1CC[C@H](C(=O)Nc2ncnc3[nH]ncc23)CC1` [Compound 115.2HBr.1/4H2O, trans-N-(1H-pyrazolo[3,4-d]pyrimidin-4-yl)-4-aminomethylcyclohexanecarboxamide] registered an IC50 with Human SK-Mel-28 melanoma of 9 µM.
`N=C(N)NC[C@H]1CC[C@H](C(=O)Nc2ccnc3[nH]ccc23)CC1` [Compound 142.2HCl.H2O, trans-N-(1H-pyrrolo[2,3-b]pyridin-4-yl)-4-guanidinomethylcyclohexanecarboxamide]: the inhibition at 100 µM with mouse femoral bone amounted to 44.2%. In the test on Human SK-Mel-28 melanoma, this compound gave an IC50 of 59 µM.
In the case of `Cn1ccc2c(NC(=O)[C@H]3CC[C@H](CNC(=N)N)CC3)ccnc21` [Compound 145.2HCl.H2O, trans-N-(1-methylpyrrolo[2,3-b]pyridin-4-yl)-4-(guanidinomethyl)cyclohexanecarboxamide], half-maximal inhibition with Human SK-Mel-28 melanoma (IC50) was put at 62 µM.
On to `O=S(=O)(c1cccc2cnccc12)N1CCCNCC1` [Compound 204.2HCl, 1-(5-isoquinolinesulfonyl)homopiperazine], for which the “Inhibition (%)” value in test [3] is recorded as 93%. Further, the inhibition at 100 µM in test [4] worked out at 82%. Further, in test [2], the “Number of lumen (10 μM)” value turned out to be 133%.
In the case of `CCCCCCCCNC(=N)NC[C@H]1CC[C@H](C(=O)Nc2ccnc3[nH]ccc23)CC1` [compound 153.2HCl, trans-N-(1H-pyrrolo[2,3-b]pyridin-4-yl)-4-(3-octylguanidinomethyl)cyclohexanecarboxamide], half-maximal inhibition in test [5] (IC50) was put at 27 µM.
`C[C@@H](N)c1ccc(C(=O)Nc2ccncc2)cc1Cl` [compound 163.2HBr, (R)-(+)-N-(4-pyridyl)-4-(1-aminoethyl)-3-chlorobenzamide] came in with an IC50 in test [5] of 63 µM.
